Values quoted from earlier work as cited in patent US20110294815A1, “PROSTACYCLIN ANALOGS” (priority 2008, published 2011).

Conditions: patients with hepatic insufficiency vs healthy adults

Compound: CCCCC[C@H](O)CC[C@@H]1[C@H]2Cc3cccc(OCC(=O)[O-])c3C[C@H]2C[C@H]1O.[Na+] [treprostinil, (1R,2R,3aS,9aS)-[[2,3,3a,4,9,9a-Hexahydro-2-hydroxy-1-[(3S)-3-hydroxyoctyl]-1H-benz[f]inden-5-yl]oxy]acetic acid monosodium salt]
- reduction of clearance compared to healthy adults: up to 80%
